According to patent US10865216B2, “Tricyclic Gyrase inhibitors” (MERCK SHARP & DOHME CORP., priority 2012, dated 2020):
Converted amounts (≈) assume the structure as drawn. Read-outs that look alike come from different tables or passages of the source. Values belong to the compound of their own block, whether it stands above or below them.

Legend:
Type in all cases: cell-based
S. pneumoniae ATCC 51916 = experiment: MIC, S. pneumoniae ATCC 51916; conditions: for Spn52 MIC: Table 17, comparative, Spn52 not defined; for Spn MIC / MIC: Table 10, Spn = S. pneumoniae; for MIC: Streptococcus pneumoniae, ATCC51916
P. aeruginosa ATCC 15692 = experiment: MIC, P. aeruginosa ATCC 15692; conditions: for PA MIC: Table 17, comparative, new species of R2; for Pa MIC / MIC: Table 10, Pa = P. aeruginosa; for MIC: Pseudomonas aeruginosa, ATCC15692
S. aureus ATCC 13709 = experiment: MIC, S. aureus ATCC 13709; conditions: for SA MIC: Table 17, comparative, new species of R2; for Sa MIC: Table 10; for MIC: Staphylococcus aureus
E. coli ATCC 25922 = experiment: MIC, E. coli ATCC 25922; conditions: for Ec MIC: Table 10; for MIC: Escherichia coli
[1] = tested on: K. pneumoniae ATCC 700603; experiment: MIC, K. pneumoniae ATCC 700603; conditions: Table 10, Kpn = K. pneumoniae; for MIC: Klebsiella pneumoniae, ATCC700603
A. baumannii ATCC 19606 = experiment: MIC, A. baumannii ATCC 19606; conditions: Table 10, Ab = A. baumannii, strain not stated; for MIC: Acinetobacter baumannii, ATCC19606
[2] = E. coli, Alamar Blue read after overnight incubation at 35° C.
[3] = Ec = E. coli, strain not stated
[4] = S. aureus, Alamar Blue read after overnight incubation at 35° C.
[5] = ATCC25922, E. coli, Alamar Blue read after overnight incubation at 35° C., read-out: MIC Ec
[6] = ATCC25922, Table 10, Ec = E. coli, strain not stated, read-out: Ec MIC
[7] = ATCC13709, S. aureus, Alamar Blue read after overnight incubation at 35° C., read-out: MIC Sa
[8] = ATCC13709, Table 10, Sa = S. aureus, read-out: Sa MIC

Structure (SMILES): CNc1cc(F)cc2c1[nH]c1nc(Oc3cnc(C)nc3)nc(C3C[C@H]4CCN[C@H]4C3)c12 (stereo partly drawn)
Spn52 MIC (S. pneumoniae ATCC 51916): < 0.03 µg/mL
PA MIC (P. aeruginosa ATCC 15692): 2 µg/mL
SA MIC (S. aureus ATCC 13709): < 0.03 µg/mL

Structure (SMILES): CNc1cc(F)cc2c1[nH]c1nc(Oc3cnc(C)nc3)nc(N3C[C@H]4C[C@@H]3C[C@H]4N)c12
Spn52 MIC (S. pneumoniae ATCC 51916): ≤ 0.016 µg/mL
PA MIC (P. aeruginosa ATCC 15692): 1 µg/mL
SA MIC (S. aureus ATCC 13709): ≤ 0.016 µg/mL

Structure (SMILES): CNc1cc(F)cc2c1[nH]c1nc(Oc3cnc4ccnn4c3)nc(N3C[C@H]4C[C@@H]3C[C@H]4N)c12
Spn52 MIC (S. pneumoniae ATCC 51916): ≤ 0.001 µg/mL
PA MIC (P. aeruginosa ATCC 15692): 0.5 µg/mL
SA MIC (S. aureus ATCC 13709): ≤ 0.016 µg/mL

Structure (SMILES): CNc1cc(F)cc2c1[nH]c1nc(Oc3cnc(C)nc3)nc(N3CC4NCCC4(C)C3)c12 (stereo not drawn) [Compound 4.157]
Spn MIC (S. pneumoniae ATCC 51916): ≤0.5 µg/mL
MIC Ec (E. coli ATCC 25922; [2]): ≤0.5 µg/mL
Ec MIC (E. coli ATCC 25922; [3]): ≤0.5 µg/mL
Kpn MIC [1]: 4 µg/mL
Pa MIC (P. aeruginosa ATCC 15692): 8 µg/mL
Ab MIC (A. baumannii ATCC 19606): ≤0.5 µg/mL
MIC Sa (S. aureus ATCC 13709; [4]): ≤0.5 µg/mL
Sa MIC (S. aureus ATCC 13709; Sa = S. aureus): ≤0.5 µg/mL

Structure (SMILES): CNc1cc(F)cc2c1[nH]c1nc(Oc3cnc(C(C)O)nc3)nc(N3CC4(CCC4N)C3)c12 (stereo not drawn) [Compound 4.410]
Spn MIC (S. pneumoniae ATCC 51916): ≤0.5 µg/mL
MIC Ec (E. coli ATCC 25922; [2]): ≤0.5 µg/mL
Ec MIC (E. coli ATCC 25922; [3]): ≤0.5 µg/mL
Kpn MIC [1]: 2 µg/mL
Pa MIC (P. aeruginosa ATCC 15692): 1 µg/mL
Ab MIC (A. baumannii ATCC 19606): 2 µg/mL
MIC Sa (S. aureus ATCC 13709; [4]): ≤0.5 µg/mL
Sa MIC (S. aureus ATCC 13709; Sa = S. aureus): ≤0.5 µg/mL

Structure (SMILES): CNc1cc(F)cc2c1[nH]c1nc(Oc3ccc(C#N)nc3)nc(N3C[C@H]4C[C@@H]3C[C@H]4N)c12 [Compound 4.434]
MIC (S. pneumoniae ATCC 51916): ≤ 0.5 µg/mL
MIC (E. coli ATCC 25922; [5]): ≤ 0.5 µg/mL
MIC (E. coli ATCC 25922; [6]): ≤ 0.5 µg/mL
MIC [1]: 1 µg/mL (≈ 2.25 µM)
MIC (P. aeruginosa ATCC 15692): 1 µg/mL (≈ 2.25 µM)
MIC (A. baumannii ATCC 19606): ≤ 0.5 µg/mL
MIC (S. aureus ATCC 13709; [7]): ≤ 0.5 µg/mL
MIC (S. aureus ATCC 13709; [8]): ≤ 0.5 µg/mL

Structure (SMILES): CNc1cc(F)c(C)c2c1[nH]c1nc(Oc3cnc(C)nc3)nc(N3CC4C[C@@H]3C[C@H]4N)c12 [Compound 6.280]
MIC (S. pneumoniae ATCC 51916): ≤ 0.5 µg/mL
MIC (E. coli ATCC 25922; [5]): ≤ 0.5 µg/mL
MIC (E. coli ATCC 25922; [6]): ≤ 0.5 µg/mL
MIC [1]: 2 µg/mL (≈ 4.46 µM)
MIC (P. aeruginosa ATCC 15692): 1 µg/mL (≈ 2.23 µM)
MIC (A. baumannii ATCC 19606): ≤ 0.5 µg/mL
MIC (S. aureus ATCC 13709; [7]): ≤ 0.5 µg/mL
MIC (S. aureus ATCC 13709; [8]): ≤ 0.5 µg/mL

Structure (SMILES): CNc1cc(F)c(C)c2c1[nH]c1nc(Oc3cnc(C)nc3)nc(N3C[C@H](N)C4(CC4)C3)c12 [Compound 6.290]
MIC (S. pneumoniae ATCC 51916): ≤ 0.5 µg/mL
MIC (E. coli ATCC 25922; [5]): ≤ 0.5 µg/mL
MIC (E. coli ATCC 25922; [6]): ≤ 0.5 µg/mL
MIC [1]: 2 µg/mL (≈ 4.46 µM)
MIC (P. aeruginosa ATCC 15692): 2 µg/mL (≈ 4.46 µM)
MIC (A. baumannii ATCC 19606): ≤ 0.5 µg/mL
MIC (S. aureus ATCC 13709; [7]): ≤ 0.5 µg/mL
MIC (S. aureus ATCC 13709; [8]): ≤ 0.5 µg/mL

Results, then the compound that gave them:

MIC Ec (E. coli ATCC 25922; Table 18, Ec): ≤ 0.5 µg/mL
MIC Sa (S. aureus ATCC 13709; Table 18, Sa): ≤ 0.5 µg/mL
Structure (SMILES): CNc1cc(F)cc2c1[nH]c1nc(Oc3cnc(N(C)N)nc3)nc(N3C[C@H]4C[C@@H]3C[C@H]4N)c12 [Compound 10.98]

MIC Ec (E. coli ATCC 25922; Table 18, Ec): ≤ 0.5 µg/mL
MIC Sa (S. aureus ATCC 13709; Table 18, Sa): ≤ 0.5 µg/mL
Structure (SMILES): CNc1cc(F)cc2c1[nH]c1nc(Oc3cnc(C)nc3)nc(N3CC4CC(OS(N)(=O)=O)C4C3)c12 (stereo not drawn) [Compound 10.99]

MIC Ec (E. coli ATCC 25922; Table 18, Ec): ≤ 0.5 µg/mL
MIC Sa (S. aureus ATCC 13709; Table 18, Sa): ≤ 0.5 µg/mL
Structure (SMILES): CNc1cc(F)cc2c1[nH]c1nc(Oc3cnc(C(C)O)nc3)nc(N(C)C)c12 (stereo not drawn) [Compound 10.101]

MIC Ec (E. coli ATCC 25922; Table 18, Ec): ≤ 0.5 µg/mL
MIC Sa (S. aureus ATCC 13709; Table 18, Sa): ≤ 0.5 µg/mL
Structure (SMILES): CNc1ncc(Oc2nc(N3CCC4(CC[C@H]4N)C3)c3c(n2)[nH]c2c(NC)cc(F)cc23)cn1 (stereo partly drawn) [Compound 10.102]

MIC Ec (E. coli ATCC 25922; Table 18, Ec): ≤ 0.5 µg/mL
MIC Sa (S. aureus ATCC 13709; Table 18, Sa): ≤ 0.5 µg/mL
Structure (SMILES): CNc1cc(F)c(F)c2c1[nH]c1nc(Oc3cnc(C(C)O)nc3)nc(N3CC4(CCCC4N)C3)c12 (stereo not drawn) [Compound 10.103]

MIC Ec (E. coli ATCC 25922; Table 18, Ec): 8 µg/mL (≈ 16.9 µM)
MIC Sa (S. aureus ATCC 13709; Table 18, Sa): ≤ 0.5 µg/mL
Structure (SMILES): CNc1cc(F)cc2c1[nH]c1nc(Oc3cnc(C)nc3)nc(N3CCC(S(N)(=O)=O)C3)c12 (stereo not drawn) [Compound 10.104]

MIC Ec (E. coli ATCC 25922; Table 18, Ec): 1 µg/mL (≈ 2.16 µM)
MIC Sa (S. aureus ATCC 13709; Table 18, Sa): ≤ 0.5 µg/mL
Structure (SMILES): CNc1cc(F)cc2c1[nH]c1nc(Oc3cnc(CN)nc3)nc(N3CCC4(CC[C@H]4N)C3)c12 (stereo partly drawn) [Compound 10.105]

MIC Ec (E. coli ATCC 25922; Table 18, Ec): 2 µg/mL (≈ 4.08 µM)
MIC Sa (S. aureus ATCC 13709; Table 18, Sa): ≤ 0.5 µg/mL
Structure (SMILES): CNc1cc(F)c(F)c2c1[nH]c1nc(Oc3cnc(C)nc3)nc(N3CCC(S(N)(=O)=O)C3)c12 (stereo not drawn) [Compound 10.106]

MIC Ec (E. coli ATCC 25922; Table 18, Ec): ≤ 0.5 µg/mL
MIC Sa (S. aureus ATCC 13709; Table 18, Sa): ≤ 0.5 µg/mL
Structure (SMILES): CNc1cc(F)c(F)c2c1[nH]c1nc(Oc3cnc(C)nc3)nc(N3CCOCC3)c12 [Compound 10.107]

MIC Ec (E. coli ATCC 25922; Table 18, Ec): > 16 µg/mL
MIC Sa (S. aureus ATCC 13709; Table 18, Sa): ≤ 0.5 µg/mL
Structure (SMILES): CNc1cc(F)cc2c1[nH]c1nc(Oc3cnc4c(c3)C(=O)N(C)C4O)nc(N3C[C@H]4C[C@@H]3C[C@H]4N)c12 (stereo partly drawn) [Compound 10.108]
